# Results: US9529005B2, “Modulating bacterial MAM polypeptides in pathogenic disease” (priority 2011, dated 2016)
# Where two headings read alike, the source gives them in different places.
# Columns and labels:
# Assay in all cases: Antimicrobial susceptibility testing (MIC), BD Phoenix Automated Microbiology System; as to interpretation of the result: key: R, resistant; I, intermediate; S, susceptible; R*: *As a rule, when ESBL is detected, an interpretation of susceptible or intermediate for penicillins, cephalosporins and aztreonam is reported as resistant
# Format in all cases: cell-based
# Acinetobacter baumannii = details: for MIC: Acinetobacter baumannii
# Source text: (§1) The inventors performed antimicrobial susceptibility testing (AST) by determining the minimal inhibiting concentration (MIC) of a panel of antimicrobials on all twenty bacterial isolates using the BD Phoenix Automated Microbiology System (Table 3). Antimicrobial panels included several drugs from each of the four most commonly used classes of antimicrobials, aminoglycosides, β-lactams, carbapenems and fluoroquinolones. The panels also included antimicrobials from other classes, such as trimethoprim/sulfamethoxazole, but resistance to these was not considered in the classification of isolates as multidrug-resistant.
# Escherichia coli = details: for MIC: Escherichia coli
# Source text: as §1
# Klebsiella ssp. = details: for MIC: Klebsiella
# Source text: as §1
# Pseudomonas aeruginosa = details: for MIC: Pseudomonas aeruginosa
# Source text: as §1
# [1] = Acinetobacter baumannii isolate 1
# [2] = Acinetobacter baumannii isolate 2
# [3] = Acinetobacter baumannii isolate 3
# [4] = Acinetobacter baumannii isolate 4
# [5] = Acinetobacter baumannii isolate 5
# [6] = Escherichia coli isolate 1, read-out: minimal inhibiting concentration
# [7] = Escherichia coli isolate 2, read-out: minimal inhibiting concentration
# [8] = Escherichia coli isolate 3, read-out: minimal inhibiting concentration
# [9] = Escherichia coli isolate 4, read-out: minimal inhibiting concentration
# [10] = Escherichia coli isolate 5, read-out: minimal inhibiting concentration
# [11] = read-out: minimal inhibiting concentration, Escherichia coli isolate 1
# [12] = read-out: minimal inhibiting concentration, Escherichia coli isolate 2
# [13] = read-out: minimal inhibiting concentration, Escherichia coli isolate 3
# [14] = read-out: minimal inhibiting concentration, Escherichia coli isolate 4
# [15] = read-out: minimal inhibiting concentration, Escherichia coli isolate 5
# [16] = read-out: minimal inhibiting concentration, Klebsiella ssp. isolate 1
# [17] = read-out: minimal inhibiting concentration, Klebsiella ssp. isolate 2
# [18] = read-out: minimal inhibiting concentration, Klebsiella ssp. isolate 3
# [19] = read-out: minimal inhibiting concentration, Klebsiella ssp. isolate 4
# [20] = read-out: minimal inhibiting concentration, Klebsiella ssp. isolate 5
# [21] = read-out: minimal inhibiting concentration, Acinetobacter baumannii isolate 1
# [22] = read-out: minimal inhibiting concentration, Acinetobacter baumannii isolate 2
# [23] = read-out: minimal inhibiting concentration, Acinetobacter baumannii isolate 3
# [24] = read-out: minimal inhibiting concentration, Acinetobacter baumannii isolate 4
# [25] = read-out: minimal inhibiting concentration, Acinetobacter baumannii isolate 5
# [26] = Pseudomonas aeruginosa isolate 1
# [27] = Pseudomonas aeruginosa isolate 2
# [28] = Pseudomonas aeruginosa isolate 3
# [29] = Pseudomonas aeruginosa isolate 4
# [30] = Pseudomonas aeruginosa isolate 5
Molecule,interpretation of the result (Acinetobacter baumannii; [1]),interpretation of the result (Acinetobacter baumannii; [2]),interpretation of the result (Acinetobacter baumannii; [3]),interpretation of the result (Acinetobacter baumannii; [4]),interpretation of the result (Acinetobacter baumannii; [5]),interpretation of the result (Escherichia coli; Escherichia coli isolate 1),interpretation of the result (Escherichia coli; Escherichia coli isolate 2),interpretation of the result (Escherichia coli; Escherichia coli isolate 3),interpretation of the result (Escherichia coli; Escherichia coli isolate 4),interpretation of the result (Klebsiella ssp.; Klebsiella ssp. isolate 1),interpretation of the result (Klebsiella ssp.; Klebsiella ssp. isolate 2),interpretation of the result (Klebsiella ssp.; Klebsiella ssp. isolate 3),interpretation of the result (Klebsiella ssp.; Klebsiella ssp. isolate 4),MIC (Acinetobacter baumannii; [21]) [µg/mL],MIC (Acinetobacter baumannii; [22]) [µg/mL],MIC (Acinetobacter baumannii; [23]) [µg/mL],MIC (Acinetobacter baumannii; [24]) [µg/mL],MIC (Acinetobacter baumannii; [25]) [µg/mL],also measured
"C[C@H]1[C@H](NC(=O)/C(=N\OC(C)(C)C(=O)O)c2csc(N)n2)C(=O)N1S(=O)(=O)O [Az., Aztreonam]",R,R,R,R,R,R,R,R,R,R,R,R,R,,,,,,"MIC (Acinetobacter baumannii; Acinetobacter baumannii isolate 1, read-out: minimal inhibiting concentration): > 16 µg/mL; MIC (Acinetobacter baumannii; Acinetobacter baumannii isolate 2, read-out: minimal inhibiting concentration): > 16 µg/mL; MIC (Acinetobacter baumannii; Acinetobacter baumannii isolate 3, read-out: minimal inhibiting concentration): > 16 µg/mL; MIC (Acinetobacter baumannii; Acinetobacter baumannii isolate 4, read-out: minimal inhibiting concentration): > 16 µg/mL; MIC (Acinetobacter baumannii; Acinetobacter baumannii isolate 5, read-out: minimal inhibiting concentration): > 16 µg/mL; MIC (Escherichia coli; [6]): > 16 µg/mL; MIC (Escherichia coli; [7]): > 16 µg/mL; MIC (Escherichia coli; [8]): > 16 µg/mL; MIC (Escherichia coli; [9]): > 16 µg/mL; MIC (Escherichia coli; [10]): 8 µg/mL; interpretation of the result (Klebsiella ssp.; Klebsiella ssp. isolate 5): R; MIC (Klebsiella ssp.; Klebsiella ssp. isolate 1, read-out: minimal inhibiting concentration): > 16 µg/mL; MIC (Klebsiella ssp.; Klebsiella ssp. isolate 2, read-out: minimal inhibiting concentration): > 16 µg/mL; MIC (Klebsiella ssp.; Klebsiella ssp. isolate 3, read-out: minimal inhibiting concentration): > 16 µg/mL; MIC (Klebsiella ssp.; Klebsiella ssp. isolate 4, read-out: minimal inhibiting concentration): > 16 µg/mL; MIC (Klebsiella ssp.; Klebsiella ssp. isolate 5, read-out: minimal inhibiting concentration): > 16 µg/mL"
"CO/N=C(\C(=O)N[C@@H]1C(=O)N2C(C(=O)[O-])=C(C[N+]3(C)CCCC3)CS[C@H]12)c1csc(N)n1 [Cefe., Cefepime]",,,,,,R,R,R,R,R,R,,R,,,,,,MIC (Escherichia coli; [11]): > 16 µg/mL; MIC (Escherichia coli; [12]): > 16 µg/mL; MIC (Escherichia coli; [13]): > 16 µg/mL; MIC (Escherichia coli; [14]): > 16 µg/mL; MIC (Escherichia coli; [15]): 8 µg/mL; MIC (Klebsiella ssp.; [16]): > 16 µg/mL; MIC (Klebsiella ssp.; [17]): > 16 µg/mL; MIC (Klebsiella ssp.; [18]): 2 µg/mL; MIC (Klebsiella ssp.; [19]): > 16 µg/mL; MIC (Klebsiella ssp.; [20]): 2 µg/mL
"CO/N=C(\C(=O)N[C@@H]1C(=O)N2C(C(=O)O)=C(COC(C)=O)CS[C@H]12)c1csc(N)n1 [Cefo., Cefotaxime]",R,R,R,R,R,,,,,R,R,S,R,> 32,> 32,> 32,> 32,> 32,interpretation of the result (Klebsiella ssp.; Klebsiella ssp. isolate 5): R; MIC (Klebsiella ssp.; [16]): > 32 µg/mL; MIC (Klebsiella ssp.; [17]): > 32 µg/mL; MIC (Klebsiella ssp.; [18]): ≤ 4 µg/mL; MIC (Klebsiella ssp.; [19]): > 32 µg/mL; MIC (Klebsiella ssp.; [20]): > 32 µg/mL
"CO/N=C(\C(=O)N[C@@H]1C(=O)N2C(C(=O)O)=C(COC(N)=O)CS[C@H]12)c1ccco1 [Cefu., Cefuroxime]",R,R,R,R,R,R,R,R,R,,,,,> 16,> 16,> 16,> 16,> 16,"interpretation of the result (Escherichia coli; Escherichia coli isolate 5): R; MIC (Escherichia coli; [11]): > 16 µg/mL; MIC (Escherichia coli; [12]): > 16 µg/mL; MIC (Escherichia coli; [13]): > 16 µg/mL; MIC (Escherichia coli; [14]): > 16 µg/mL; MIC (Escherichia coli; [15]): > 16 µg/mL; interpretation of the result (Pseudomonas aeruginosa; [26]): R; interpretation of the result (Pseudomonas aeruginosa; [27]): R; interpretation of the result (Pseudomonas aeruginosa; [28]): R; interpretation of the result (Pseudomonas aeruginosa; [29]): R; interpretation of the result (Pseudomonas aeruginosa; [30]): R; MIC (Pseudomonas aeruginosa; read-out: minimal inhibiting concentration, Pseudomonas aeruginosa isolate 1): > 16 µg/mL; MIC (Pseudomonas aeruginosa; read-out: minimal inhibiting concentration, Pseudomonas aeruginosa isolate 2): > 16 µg/mL; MIC (Pseudomonas aeruginosa; read-out: minimal inhibiting concentration, Pseudomonas aeruginosa isolate 3): > 16 µg/mL; MIC (Pseudomonas aeruginosa; read-out: minimal inhibiting concentration, Pseudomonas aeruginosa isolate 4): > 16 µg/mL; MIC (Pseudomonas aeruginosa; read-out: minimal inhibiting concentration, Pseudomonas aeruginosa isolate 5): > 16 µg/mL"
"CC(=O)OCC1=C(C(=O)O)N2C(=O)[C@@H](NC(=O)Cc3cccs3)[C@H]2SC1 [Ceph., Cephalotin]",R,R,R,R,R,,,,,,,,,,,,,,minimal inhibiting concentration (Acinetobacter baumannii; [1]): > 16 µg/mL; minimal inhibiting concentration (Acinetobacter baumannii; [2]): > 16 µg/mL; minimal inhibiting concentration (Acinetobacter baumannii; [3]): > 16 µg/mL; minimal inhibiting concentration (Acinetobacter baumannii; [4]): > 16 µg/mL; minimal inhibiting concentration (Acinetobacter baumannii; [5]): > 16 µg/mL
"O=C(O)c1cn(C2CC2)c2cc(N3CCNCC3)c(F)cc2c1=O [Cipro., Ciprofloxacin]",,,,,,R,R,R,R,,,,,,,,,,interpretation of the result (Escherichia coli; Escherichia coli isolate 5): R; MIC (Escherichia coli; [6]): > 2 µg/mL; MIC (Escherichia coli; [7]): > 2 µg/mL; MIC (Escherichia coli; [8]): > 2 µg/mL; MIC (Escherichia coli; [9]): > 2 µg/mL; MIC (Escherichia coli; [10]): > 2 µg/mL
"C[C@@H](O)[C@H]1C(=O)N2C(C(=O)O)=C(S[C@@H]3CN[C@H](C(=O)Nc4cccc(C(=O)O)c4)C3)[C@H](C)[C@H]12 [Ert., Ertapenem]",,,,,,,,,,,S,S,S,,,,,,susceptibility of isolates (Escherichia coli; all E. coli isolates): susceptible; MIC (Klebsiella ssp.; [17]): ≤ 0.5 µg/mL; MIC (Klebsiella ssp.; [18]): ≤ 0.5 µg/mL; MIC (Klebsiella ssp.; [19]): ≤ 0.5 µg/mL; susceptibility of isolates (Klebsiella ssp.; all Klebsiella ssp. isolates): susceptible
"COc1c(N2CCNC(C)C2)c(F)cc2c(=O)c(C(=O)O)cn(C3CC3)c12 (stereo not shown) [Gati., Gatifloxacin]",R,R,I,R,R,,,,,,,,,> 4,> 4,4,> 4,> 4,
"CCN1CCN(C(=O)N[C@@H](C(=O)N[C@@H]2C(=O)N3[C@@H]2SC(C)(C)[C@@H]3C(=O)O)c2ccccc2)C(=O)C1=O [Pip., Piperacillin]",R,R,R,R,R,,,,,,,,,> 64,> 64,> 64,> 64,> 64,
Amoxillin-Calvulanate [AmoxC.],R,R,R,R,R,,,,,R,R,R,R,,,,,,minimal inhibiting concentration (Acinetobacter baumannii; [1]): 16/8; minimal inhibiting concentration (Acinetobacter baumannii; [2]): 16/8; minimal inhibiting concentration (Acinetobacter baumannii; [3]): 16/8; minimal inhibiting concentration (Acinetobacter baumannii; [4]): 16/8; minimal inhibiting concentration (Acinetobacter baumannii; [5]): 16/8; minimal inhibiting concentration (Klebsiella ssp.; Klebsiella ssp. isolate 1): 16/8; minimal inhibiting concentration (Klebsiella ssp.; Klebsiella ssp. isolate 2): 16/8; minimal inhibiting concentration (Klebsiella ssp.; Klebsiella ssp. isolate 3): 8/4; minimal inhibiting concentration (Klebsiella ssp.; Klebsiella ssp. isolate 4): 16/8; interpretation of the result (Klebsiella ssp.; Klebsiella ssp. isolate 5): R; minimal inhibiting concentration (Klebsiella ssp.; Klebsiella ssp. isolate 5): 16/8
Ampicillin-Sulbactam [AmpS.],,,,,,R,R,R,R,,,,,,,,,,minimal inhibiting concentration (Escherichia coli; Escherichia coli isolate 1): 16/8; minimal inhibiting concentration (Escherichia coli; Escherichia coli isolate 2): 16/8; minimal inhibiting concentration (Escherichia coli; Escherichia coli isolate 3): 16/8; minimal inhibiting concentration (Escherichia coli; Escherichia coli isolate 4): 16/8; interpretation of the result (Escherichia coli; Escherichia coli isolate 5): R; minimal inhibiting concentration (Escherichia coli; Escherichia coli isolate 5): 16/8; interpretation of the result (Pseudomonas aeruginosa; [26]): R; minimal inhibiting concentration (Pseudomonas aeruginosa; [26]): 16/8; interpretation of the result (Pseudomonas aeruginosa; [27]): R; minimal inhibiting concentration (Pseudomonas aeruginosa; [27]): 16/8; interpretation of the result (Pseudomonas aeruginosa; [28]): R; minimal inhibiting concentration (Pseudomonas aeruginosa; [28]): 16/8; interpretation of the result (Pseudomonas aeruginosa; [29]): R; minimal inhibiting concentration (Pseudomonas aeruginosa; [29]): 16/8; interpretation of the result (Pseudomonas aeruginosa; [30]): R; minimal inhibiting concentration (Pseudomonas aeruginosa; [30]): 16/8
